Reference: patent US11666517B2, “Antimicrobial composition” (Firmenich SA, priority 2016, dated 2023)
Where two headings read alike, the source gives them in different places.

Tests used:
E. coli DSMZ 1103 [1] = experiment: Fractional Inhibitory Concentration Index (FIC) / MIC, 96-well broth dilution of ingredient combinations; type: cell-based, Escherichia coli; settings: for MIC: Escherichia coli, DSMZ1103, 24 h, read-out: Concentration of ingredient alone (Minimal Inhibitory Concentration, MIC alone); for FIC: ingredient alone at its MIC
Protocol: (§1) The method below allows evaluating antimicrobial activity of different raw materials in combination. The Fractional Inhibitory Concentration Index (FIC Index) is a measure of activity (Garcia L. S., Clinical Microbiology Procedures Handbook, pg. 140-162, 3rd Edition (2010), ASM Press, Washington D.C.) and is calculated according to the formula below:
(§2) [formula] where (MICA alone) and (MICB alone) are the Minimal Inhibitory Concentrations (MIC) of individual ingredients A and B when used in isolation, respectively; whereas (MICA combination) and (MICB combination) are the Minimal Inhibitory Concentrations of materials A and B when tested in combination. Ingredient A corresponds to nona-2,6-dien-1-ol and ingredient B stands for 3-neopentylpyridine, 2-methylhexan-3-one oxime, terpineol or 2-isopropyl-5-methylphenol.
(§3) The Minimal Inhibitory Concentration of a material is defined as the lowest concentration of an agent which can inhibit visible bacterial growth (CLSI M08-A8 Methods for dilution Antimicrobial Susceptibility Test for Bacteria That Grow Aerobically; Approved Standard-Eighth Edition).
(§4) Bacterial suspensions of E. coli DSMZ 1103 and S. aureus DSMZ 1104 were prepared as follows: a frozen stock aliquot was streaked on a Tryptic Soy Agar plate, which was then incubated at 37° C. for 24 hours. A single bacterial colony was picked and inoculated into 50 ml of Mueller Hinton Broth contained in a 100 ml-flask. Incubation was performed overnight at 37° C., under agitation (160 rpm). The following day, the overnight culture was diluted into 50 ml of fresh Mueller Hinton Broth at 1:50 and 1:100 for S. aureus and E. coli, respectively. Growth at 37° C. was continued as described above until the absorbance measured at 600 nm reached 0.7-0.9 and 0.3-0.45 for S. aureus and E. coli, respectively. At this point, cells were harvested by centrifugation (10 min—5000×g—4° C.) and suspended in fresh Mueller Hinton Broth at a concentration of 1×10^8 CFU/ml.
(§5) Solutions of raw materials under evaluation (ingredients A and B) were prepared in ethanol and then serially diluted in the desired concentration into 96-well microtiter plates (10 μl per well). Columns 1, 10, 11 and 12 received only 10 μl ethanol without any testing material. The final concentration of ethanol was 5% w/v for all wells.
(§6) Then, 90 μl of cell suspension as prepared above were added to each well of the microtiter plate, with the exception of column 12 which received 90 μl of Mueller Hinton Broth. The final volume of each well was brought to 200 μl with Mueller Hinton Broth. Each plate was sealed and incubated at 37° C. for 24 hours, under agitation (160 rpm). After incubation, plate reading was performed visually by recording wells with visible bacterial growth. Each combination of materials was tested in triplicate. Turbidity due to potential precipitation of raw materials was taken into account by scoring plates containing identical raw material concentrations, without bacteria.

S. aureus DSMZ 1104 = experiment: as above; type: cell-based, Staphylococcus aureus; settings: for MIC: Staphylococcus aureus, DSMZ1104, 24 h, read-out: Concentration of ingredient alone (Minimal Inhibitory Concentration, MIC alone); for FIC: ingredient alone at its MIC
Protocol: as §1, §2, §3, §4, §5, §6

E. coli DSMZ 1103 [2] = experiment: BCT test in 50% liquid soap base; type: cell-based, Escherichia coli; settings: Table 21: single material 0.3% in 50% liquid soap base, contact time 45 sec
Protocol: Bacterial solutions of the two strains, E. coli DSMZ 1103 and S. aureus DSMZ 1104, were prepared for BCT test as follows. Stock cultures stored at −80° C. were sub-cultured onto Tryptic Soy Agar (TSA) agar plate media, and incubated at 37° C. for 24 h to obtain single colonies. Single colonies of the primary cultures were streaked onto TSA slant and incubate it at 37° C. incubator for 24 h. Bacterial lawns of the slant culture were collected in PBS buffer to make suspensions with the target level of 1-5×10^8 CFU/mL. The 1:100 dilution of each cell suspension in PBS buffer was used as the bacterial solutions for the BCT test.
Test samples of base with synergistic binary mixtures were prepared as follows. Raw materials of the synergistic binary mixtures (Table 17) were mixed with the liquid soap base PGK-10-003 (Table 18). Aliquots (2.5 g) of each mixture were weighed into 20 ml glass tube with a stirrer bar, and added with equal amount of MilliQ water to make 50% suspension as the test samples for the BCT test.
BCT tests were performed in the 20 ml sample tubes. Each sample tube with 5 g of 50% sample suspension was placed onto a magnetic stirrer, and an aliquot of bacterial solution (100 μl) was added to the sample and allowed for a contact of 45 sec during mixing. Then aliquots (0.5 ml) of the mixture were transferred into 5 ml PBS, and further serial dilutions were made in 4.5 ml PBS. Aliquots (0.5 ml) of PBS dilutions were plated onto duplicate plates of TSA plates using the pour plate method. TSA plates were incubated at 37° C. for 48 h. After incubation, colonies on TSA plates were enumerated and log reduction of each sample were calculated against the CFU counts of the control sample (MilliQ water).

C. xerosis ATCC 373 = experiment: BCT test in 90% roll-on deodorant base; type: cell-based, Corynebacterium xerosis; settings: Table 25: single material 0.216% in 90% roll-on deodorant base, contact time 120 sec
Protocol: Bacterial solution of C. xerosis ATCC 373 strain was prepared for BCT test as follows. Stock cultures stored at −80° C. were subcultured onto Tryptic Soy Agar media with 0.5% Tween 80 (TSA-TW80), and incubated at 37° C. for 48 h. The primary cultures were subcultured onto TSA-TW80 again to prepare the secondary cultures. Single colonies of secondary culture were inoculated into 30 ml of Brain Heart Infusion (BHI) broth with 0.5% Tween 80 (BHI-TW80), and incubated at 37° C. 180 rpm for 24 h. Aliquots (1 ml) of the 24 h culture were inoculated into 30 ml of fresh BHI-TW80 broth, and incubated at 37° C. 180 rpm for 48 h. Aliquots (2-3 ml) of the 48 h culture were inoculated into four 50 ml of fresh BHI-TW80 broth medium, and incubated at 37° C. 180 rpm for 4-6 hrs. When the OD reached the target value of 1.6, cells were harvested by centrifugation at 5000 rpm for 10 min, and then resuspended in the same fresh broth media to a target concentration of 10^9 to 10^10 cfu/mL. This suspension was used as the bacterial solution for the BCT test.
Test samples of base with synergistic binary mixtures were prepared as follows. Raw materials of the synergistic binary mixtures were weighed (Table 22), and mixed with 0.3 g PEG-40 Hydrogenated Castor Oil and 9.57 g deodorant roll on base (Table 23).
BCT tests were performed in 15 ml sample tubes. Aliquots (0.9 g) of each sample were weighed into the tube, and an aliquot of bacterial solution (100 μl) was added to the sample and allowed for a contact time of 120 sec with constant mixing. At the end of the contact time, aliquots (9 ml) of BHI broth were added to the tube. The suspensions were mixed well by vortexing, and further 1:10 serial dilutions were made in […] BHI. Aliquots (1 ml) of BHI dilutions were plated onto duplicate plates of TSA-TW80 using pour plate methods. TSA-TW80 plates were incubated at 37° C. for 2-3 days. After incubation, colonies on TSA-TW80 plates were enumerated and log reduction of each sample were calculated against the CFU counts of the control sample (BHI).

[3] = ingredient used in isolation, other ingredient 0 ppm, 37° C., 24 hours

Row | Compound | MIC (E. coli DSMZ 1103 [1]; [3]) [µg/mL] | FIC (E. coli DSMZ 1103 [1]; other ingredient 0 ppm) | MIC (E. coli DSMZ 1103 [1]) [µg/mL] | MIC (S. aureus DSMZ 1104) [µg/mL] | FIC (S. aureus DSMZ 1104; other ingredient 0 ppm) | Average log reduction ± SEM (n = 2) (E. coli DSMZ 1103 [2]) [log] | Log reduction (C. xerosis ATCC 373) [log] | MIC (S. aureus DSMZ 1104; [3]) [µg/mL]
1 | CC(C)=CCCC(C)=CCO (stereo in doubt) [(Z)-3,7-Dimethyl-2,6-octadien-1-ol] | 1200 | 1.000 | – | – | – | – | – | –
2 | O=Cc1ccc2c(c1)OCO2 [1,3-Benzodioxole-5-carbaldehyde] | – | 1.000 | 1200 | 1200 | 1.00 | – | – | –
3 | Cc1ccc(C(C)C)c(O)c1 [2-isopropyl-5-methylphenol] | 600 | 1.000 | – | – | – | 0.4 ± 0.0 | 6.0 | –
4 | CCCC(=NO)C(C)C [2-methylhexan-3-one oxime] | – | – | – | – | 1.00 | – | – | 4800
5 | CC(C)(C)Cc1cccnc1 [3-neopentylpyridine] | 600 | 1.000 | – | – | 1.00 | 0.3 ± 0.2 | 5.9 | –
6 | COc1ccc(C=O)cc1 [4-Methoxybenzaldehyde] | 1200 | 1.000 | – | – | 1.00 | – | – | –
7 | CC/C=C\CC/C=C/CO [(2E,6Z)-nona-2,6-dien-1-ol] | – | 1.000 | – | – | 1.00 | 0.3 ± 0.2 | 5.7 | –
8 | CC(C)[C@H]1CC[C@@H](CO)CC1 [cis-4(Isopropyl)cyclohexanemethanol] | 9600 | 1.000 | – | – | – | – | – | –
9 | CC1=CCC(C(C)(C)O)CC1 (stereo not drawn) [α-terpineol] | – | – | – | – | – | – | – | 1200
